Patent US12642796B2, “Method and device of treating chronic kidney disease-associated pruritus” (Avior, Inc., priority 2018, dated 2026)
Values joined by “and” are separate entries in the source; they are usually repeats but may differ in a detail not shown here. Equal entries are not always repeated.

Columns and labels:
[1] = system: C57BL/6 mice; assay: SP and nalmefene injection, scratches Groups 10-12, 0-60 minutes (Example 3); type: in vivo, mouse
Description: Fifteen male C57BL/6 mice received a single intradermal (ID) bolus injection of substance P (SP) or PBS. Group 10 (N=6) received a single 50 μL injection of PBS. Group 11 (N=4) received SP in PBS at a dose of 0.5 mM/50 μl. […] Scratching behavior was video recorded and assessed.
Groups 10 and 11: All mice were placed in a clear cylindrical enclosure 60 minutes prior to testing to acclimate. An ID bolus injection of SP in PBS was administered. Recording began immediately following injection of SP and recorded for 60 minutes.
Group 12: All mice were placed in clear cylinder enclosures for 60 minutes prior to testing to acclimate. A SC bolus injection of nalmefene was administered. 30 minutes after the nalmefene injection, an ID bolus injection of SP in PBS was administered. Recording began immediately following injection of SP and recorded for 60 minutes.
Animals in Groups 10-12 were acclimated for 1 hour prior to recording. Behavioral recording lasted for 60 minutes (T0-T60). 6 animals were dosed for Group 12 but only 5 animals were tested due to one animal being excluded as an outlier due to no response to SP injection.
The number of scratches per 10-minute time interval for Groups 10-12 is given below in Table 3. The data is also shown graphically in FIG. 4.
The number of scratches per 0-30 minute and 30-60 minute time intervals is given below in Table 4 for Group 10 (PBS), Group 11 (0.5 mM SP), and Group 12 (0.75 mg nalmefene). The data is also shown graphically in FIG. 5.

[2] = system: C57BL mice; assay: Effect of nalmefene on SP-induced scratching behavior (Example 2); type: in vivo, mouse; conditions: nalmefene SC 1 hour prior to SP ID 33.7 μg; 30 and 60 minutes after SP, FIG. 3
Description: Scratching behavior was monitored for 30 and 60 minutes after SP injection. Controls included mice that received PBS instead of SP (N=6, Group 5) and mice that received a placebo dose of PBS and ID dose of SP (N=4, Group 6).

[3] = Group 12, Nalmefene 0.75 mg SC before SP 0.5 mM ID, 0-30 min
[4] = Group 12, Nalmefene 0.75 mg SC before SP 0.5 mM ID, 30-60 min
[5] = Group 12, nalmefene 0.075 mg/75 μL SC 30 min prior to SP 0.5 mM/50 μL ID, 0-10 min
[6] = Group 12, nalmefene 0.075 mg/75 μL SC 30 min prior to SP 0.5 mM/50 μL ID, 10-20 min
[7] = Group 12, nalmefene 0.075 mg/75 μL SC 30 min prior to SP 0.5 mM/50 μL ID, 20-30 min
[8] = Group 12, nalmefene 0.075 mg/75 μL SC 30 min prior to SP 0.5 mM/50 μL ID, 30-40 min
[9] = Group 12, nalmefene 0.075 mg/75 μL SC 30 min prior to SP 0.5 mM/50 μL ID, 40-50 min
[10] = Group 12, nalmefene 0.075 mg/75 μL SC 30 min prior to SP 0.5 mM/50 μL ID, 50-60 min

C=C1CC[C@@]2(O)[C@H]3Cc4ccc(O)c5c4[C@@]2(CCN3CC2CC2)[C@H]1O5 [Nalmefene, 6-methylene-6-deoxy-N-cyclopropylmethyl-14 hydroxydihydronormorphine]
Scratches, Avg. [1, 3]: 8.6
Scratches, individual animals [1, 3]: 10 and 29 and 0 (2×) and 4
Scratches, Avg. [1, 4]: 2.9
Scratches, individual animals [1, 4]: 1 and 5 and 0 (2×) and 8.5
Scratches, Avg. [1, 5]: 2
Scratches, individual animals [1, 5]: 10 and 0 (4×)
Scratches, Avg. [1, 6]: 3
Scratches, individual animals [1, 6]: 0 (3×) and 13 and 2
Scratches, Avg. [1, 7]: 3.6
Scratches, individual animals [1, 7]: 0 (3×) and 16 and 2
Scratches, Avg. [1, 8]: 1
Scratches, individual animals [1, 8]: 0 (4×) and 5
Scratches, Avg. [1, 9]: 1.8
Scratches, individual animals [1, 9]: 0.5 and 5 and 0 (2×) and 3.5
Scratches, Avg. [1, 10]: 0.1
Scratches, individual animals [1, 10]: 0.5 and 0 (4×)
ability to control scratching behavior, and by extension pruritus ([1]; Group 12 vs Groups 10 and 11, 0-60 min): maintained over the hour
pruritogenic response to SP [2]: completely mitigated
